Several values for one entry are separate records, joined by “and”; a condition that tells them apart may be missing. Equal entries are not always repeated. Where two headings read alike, the source gives them in different places.
What was measured:
[1] = test system: IL-10; experiment: IL-10 ELISA in HIVIL (iKCs co-cultured with iHeps, LPS, 48 hr); assay type: cell-based, human; settings: result in words
Description: Human iPSC cell line iPS (IMR90)-4 was purchased from WiCell Research Institute (Madison, WI), and maintained with a feeder-free method according to the instruction from […] Technologies (Vancouver, BC, Canada). The protocol of differentiation towards iKCs and iHeps as described previously with slight modification ([Tasnim et al., 2019]; [Cai et al., 2012]), respectively. […] More details are provided in Supplementary Methods. After differentiation, iKCs was harvested using 0.05 % trypsin-EDTA (Gibco, Waltham, Massachusetts, USA), while iHeps were dissociated with TrypLE^TM (Gibco). iHep suspension was further filtered through a 40 µm cell strainer to remove extracellular matrix clumps. Cell suspension was centrifuged at 1000 rpm for 5 min. For co-culture set up, tissue culture plates were coated with Rat tail collagen I (Gibco) diluted 100-fold in 0.02 N acetic acid, and incubated at 37 °C for 1 h and washed 3 times with PBS. […]
Enzyme-linked immunosorbent assay (ELISA) for measurement of cytokines: Interleukin-6 (IL-6), interleukin-10 (IL-10) and tumor necrosis factor alpha (TNFα) levels in the media were measured using the corresponding human-based ELISA kits (Abcam, Cambridge, United Kingdom) according to manufacturer’s instructions. […]

[2] = test system: TNFα; experiment: TNFα ELISA in HIVIL (iKCs co-cultured with iHeps, LPS, 48 hr); assay type: cell-based, human; settings: low dose 3.125 μM and 6.25 μM
Description: Human iPSC cell line iPS (IMR90)-4 was purchased from WiCell Research Institute (Madison, WI), and maintained with a feeder-free method according to the instruction from […] Technologies (Vancouver, BC, Canada). The protocol of differentiation towards iKCs and iHeps as described previously with slight modification ([Tasnim et al., 2019]; [Cai et al., 2012]), respectively. […] More details are provided in Supplementary Methods. After differentiation, iKCs was harvested using 0.05 % trypsin-EDTA (Gibco, Waltham, Massachusetts, USA), while iHeps were dissociated with TrypLE^TM (Gibco). iHep suspension was further filtered through a 40 µm cell strainer to remove extracellular matrix clumps. Cell suspension was centrifuged at 1000 rpm for 5 min. For co-culture set up, tissue culture plates were coated with Rat tail collagen I (Gibco) diluted 100-fold in 0.02 N acetic acid, and incubated at 37 °C for 1 h and washed 3 times with PBS. According to the protocol optimized by [Tasnim et al. (2019)], iKCs was firstly seeded at a density of 14,000 per well on 96-well plate with Advanced DMEM (plus supplements) containing 5 % FBS. On the following day, iHeps were added at a density of 35,000 per well in Williams’ Medium E (plus supplements) (iHep: iKCs ratio = 2.5: 1). This reflects the physiological ratio of these cells in vivo under inflammatory conditions ([Tasnim et al., 2021]). Fresh media containing drugs was applied to co-cultures the next day. 50,000 cells were seeded to establish iHeps monoculture. THP-1 cells were kindly obtained from Dr. Eliza Fong and cultured as described by [Zeng et al. (2015)]. Details provided in Supplementary Methods.
Stock solutions of drugs were prepared in dimethyl sulfoxide (DMSO) and dissolved in medium prior to use. […] For these two drugs, the highest DMSO concentration was 1 %. Supernatant was collected at 48 hr for measurement of cytokines, and remaining cells were subjected to viability assay prior to lysis for RNA extraction.
Enzyme-linked immunosorbent assay (ELISA) for measurement of cytokines: Interleukin-6 (IL-6), interleukin-10 (IL-10) and tumor necrosis factor alpha (TNFα) levels in the media were measured using the corresponding human-based ELISA kits (Abcam, Cambridge, United Kingdom) according to manufacturer’s instructions. The cytokine production from dosed cells was normalized with the viability value from the same well. The normalized cytokine level upon drug treatments was further presented as percentage of DMSO+LPS. […] This normalization approach has been used in previous studies (Rose et al. 2016).

[3] = Cell viability of iHeps mono-culture; assay type: cell-based; settings: human
Description: Human iPSC cell line iPS (IMR90)-4 was purchased from WiCell Research Institute (Madison, WI), and maintained with a feeder-free method according to the instruction from […] Technologies (Vancouver, BC, Canada). The protocol of differentiation towards iKCs and iHeps as described previously with slight modification ([Tasnim et al., 2019]; [Cai et al., 2012]), respectively. The re-optimized protocol to generate iKCs is discussed in Results section. More details are provided in Supplementary Methods. After differentiation, iKCs was harvested using 0.05 % trypsin-EDTA (Gibco, Waltham, Massachusetts, USA), while iHeps were dissociated with TrypLE^TM (Gibco). iHep suspension was further filtered through a 40 µm cell strainer to remove extracellular matrix clumps. Cell suspension was centrifuged at 1000 rpm for 5 min. For co-culture set up, tissue culture plates were coated with Rat tail collagen I (Gibco) diluted 100-fold in 0.02 N acetic acid, and incubated at 37 °C for 1 h and washed 3 times with PBS. According to the protocol optimized by [Tasnim et al. (2019)], iKCs was firstly seeded at a density of 14,000 per well on 96-well plate with Advanced DMEM (plus supplements) containing 5 % FBS. On the following day, iHeps were added at a density of 35,000 per well in Williams’ Medium E (plus supplements) (iHep: iKCs ratio = 2.5: 1). […]

[4] = Cammett et al. 2009, Mendes et al. 2014, cited from earlier work
[5] = FDA-labeling information; ref Chen et al. 2016; cited from earlier work
[6] = test system: IL-6; experiment: IL-6 ELISA in iPSC(F4)-derived HIVIL; assay type: cell-based, human
Description: Enzyme-linked immunosorbent assay (ELISA) for measurement of cytokines: Interleukin-6 (IL-6), interleukin-10 (IL-10) and tumor necrosis factor alpha (TNFα) levels in the media were measured using the corresponding human-based ELISA kits (Abcam, Cambridge, United Kingdom) according to manufacturer’s instructions. The cytokine production from dosed cells was normalized with the viability value from the same well. The normalized cytokine level upon drug treatments was further presented as percentage of DMSO+LPS. Normalization to viability per well ensures that any changes in cytokines are not due to changes in cell numbers upon drug treatment and normalization to DMSO+LPS allows better comparison between different batches of experiments. This normalization approach has been used in previous studies (Rose et al. 2016).

SMILES: N[C@@H]1[C@H]2CN(c3nc4c(cc3F)c(=O)c(C(=O)O)cn4-c3ccc(F)cc3F)C[C@@H]12 [TVX, Trovafloxacin]
- IL-10 response [1]: dose-dependent IL-10 decrease
- TNFα induction [2]: 1.5 fold
- viability [3]: 53.7%
- Cmax ([4]; ref in each cell: Ademisoye et al. 2018, Xu et al. 2008, Agabeyoglu and Incecayir 2009, Rojanasthien et al. 2007, Reunanen et al. 1992, Li et al. 2002, Hong-mei et al. 2013, Bareggi et al. 1987, Jiang et al. 2008): 5 µM
- Cmax ([4]; ref in each cell: Xu et al. 2008): 5 µM
- DILIrank [5]: most
- increase in IL-6 ([6]; 6.25 μM): 1.2 fold
- inhibition of IL-6 production ([6]; higher concentrations): 80% and 97%
